Laboratory results from patent US6255497A, “Method for the inhibition of ALDH-I useful in the treatment of alcohol dependence or alcohol abuse” (priority 1998, dated 2001).
Values after ≈ are worked out from the molar mass of the structure shown. Read-outs that look alike come from different tables or passages of the source. One block for each molecule: values may come before it.

Experiments:
ALDH-I or ALDH-II = experiment: Survey of structurally related compounds for ALDH inhibition; assay type: biochemical, human
Experimental: (§1) For the study of the inhibition of ALDH-I by structurally related compounds to generate the data shown in Tables IV and V, each individual compound was dissolved at different concentrations in methanol and was added to the assay medium as 10 μL aliquots. For controls, 10 […] of methanol was added to the assay medium. In a standard ALDH-I assay, the assay medium contains 0.1 M sodium pyrophosphate pH 9.5, 0.15 M KCl, 1 mM NAD^+, 1% methanol, 5 μM acetaldehyde, 5-10 nM ALDH-I and various concentrations of inhibitor. The enzyme reaction rates were measured by monitoring the production of NADH at 340 nm (ε=6.22 mM^-1 cm^-1) with a Varian Cary 219 spectrophotometer thermostated at 25° C. (Fong et al., 1989, supra). The inhibition of ALDH-I by the inhibitors was calculated as: [formula]
(§2) where Vo is the enzyme reaction rate measured in the absence of inhibitor, and where Vi is the enzyme reaction rate measured in the presence of inhibitor. […] IC50 values are related to the underlying Ki values.

ALDH-I [1] = biological target: T1, ALDH-I (Homo sapiens, UniProt P05091); experiment: ALDH-I inhibition by structurally related compounds, acetaldehyde as substrate; assay type: biochemical; design: A liver sample (50 g wet weight) with the usual Caucasian ALDH phenotype (both ALDH-I and ALDH-II present); from tissue; host or cells: human liver (autopsy), purified by CM-52, AMP-agarose and DEAE HPLC
T1 sequence (P05091 18-517): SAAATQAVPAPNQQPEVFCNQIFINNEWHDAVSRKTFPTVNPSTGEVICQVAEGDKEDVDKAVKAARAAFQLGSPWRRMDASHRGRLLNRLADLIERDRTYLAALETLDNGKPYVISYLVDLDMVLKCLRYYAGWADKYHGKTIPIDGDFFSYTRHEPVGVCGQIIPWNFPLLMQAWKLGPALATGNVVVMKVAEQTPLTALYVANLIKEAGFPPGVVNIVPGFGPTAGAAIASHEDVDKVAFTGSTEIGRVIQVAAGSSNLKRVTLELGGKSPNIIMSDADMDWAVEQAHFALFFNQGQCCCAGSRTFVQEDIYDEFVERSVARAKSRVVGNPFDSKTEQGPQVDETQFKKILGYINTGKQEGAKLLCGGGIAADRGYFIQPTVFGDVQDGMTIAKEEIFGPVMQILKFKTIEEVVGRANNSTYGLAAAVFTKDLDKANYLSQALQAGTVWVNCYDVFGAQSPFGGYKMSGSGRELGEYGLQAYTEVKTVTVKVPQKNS
Experimental: (§3) *ALDH activities were assayed at 25° C. in 0.1 M sodium
(§4) pyrophosphate buffer pH 9.5 containins 0.15 M KCl, 1 mM NAD^+, various
(§5) concentrations of inhibitors and 5 and 200 μM acetaldehyde for ALDH-I
(§6) and ALDH-II, respectively.
For controls, 10 .eta.L of methanol was added to the assay medium. In a standard ALDH-I assay, the assay medium contains 0.1 M sodium pyrophosphate pH 9.5, 0.15 M KCl, 1 mM NAD^+, 1% methanol, 5 μM acetaldehyde, 5-10 nM ALDH-I and various concentrations of inhibitor. […] (Fong et al., 1989, supra). The inhibition of ALDH-I by the inhibitors was calculated as: [formula]
as §2

ALDH-II [2] = biological target: T2, ALDH-II (Homo sapiens, UniProt P00352); experiment: ALDH-II inhibition by structurally related compounds, acetaldehyde as substrate; assay type: biochemical; design: A liver sample (50 g wet weight) with the usual Caucasian ALDH phenotype (both ALDH-I and ALDH-II present); from tissue; host or cells: human liver (autopsy), purified by CM-52, AMP-agarose and DEAE HPLC
T2 sequence (P00352 1-501): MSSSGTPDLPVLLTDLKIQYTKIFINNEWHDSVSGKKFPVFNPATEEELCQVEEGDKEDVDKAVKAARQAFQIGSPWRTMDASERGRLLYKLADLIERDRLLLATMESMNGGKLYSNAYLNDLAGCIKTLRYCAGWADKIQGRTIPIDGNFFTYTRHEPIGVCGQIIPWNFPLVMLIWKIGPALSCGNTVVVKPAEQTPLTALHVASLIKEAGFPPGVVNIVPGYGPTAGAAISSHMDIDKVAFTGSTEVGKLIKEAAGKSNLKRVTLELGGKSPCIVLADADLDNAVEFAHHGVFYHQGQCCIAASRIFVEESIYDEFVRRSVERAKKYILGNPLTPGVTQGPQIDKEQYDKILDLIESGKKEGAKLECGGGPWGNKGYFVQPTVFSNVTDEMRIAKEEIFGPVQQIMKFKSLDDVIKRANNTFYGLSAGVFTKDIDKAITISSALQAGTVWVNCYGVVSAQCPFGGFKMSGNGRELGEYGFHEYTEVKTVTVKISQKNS
Experimental: as §3, §4, §5, §6, §1, §2

ALDH-II [3] = biological target: T2, ALDH-II; experiment: Competitive inhibition of ALDH-II with acetaldehyde as substrate; assay type: biochemical; design: A liver sample (50 g wet weight) with the usual Caucasian ALDH phenotype (both ALDH-I and ALDH-II present); from tissue; host or cells: human liver (autopsy), purified by CM-52, AMP-agarose and DEAE HPLC; details: acetaldehyde as substrate, competitive; read-out: Ki, ALDH-II
physchem = details: water
golden hamsters = experiment: Dose effect on free choice ethanol intake in golden hamsters, i.p.; assay type: in vivo, golden hamster; details: 10 mg/day, i.p.
Source text: It is common practice in quantitative drug studies with rodents to use intraperitoneal (i.p.) administration to deliver drug doses accurately (Goodman and Gilman, 1975, The Pharmacological Basis of Therapeutics, 5th ed., Macmillan, N.Y., p. 8). In particular, this method avoids variability introduced by technical difficulties of oral administration via feeding (full versus empty stomach, etc.), variations in drug transport in the gastrointestinal tract (variations in intestinal fauna and flora, individual variations in absorption rate expected of outbred animals, etc.) and other factors. […] As a control 1 ml of sterile saline was injected i.p. daily during the baseline period (typically 7-9 days) that establishes drinking preference without the drug. Saline injection i.p. had no effect on the drinking behavior of golden hamsters. Ethanol was provided as a 20% solution. Hamsters could be used more than once (but were not used more than three times) in a cycle of baseline saline injections followed by drug injections, each cycle with the drug at a different dose.
The response to daidzin treatment was computed as:
% Response=(Vo -Vd)×100/Vo

ALDH-I [4] = biological target: T1, ALDH-I; experiment: Inhibition kinetics of ALDH-I, initial velocity method, formaldehyde as substrate; details: for potency as ALDH-I inhibitor, fold less than that of daidzin / relative potency as ALDH-I inhibitor, in words: compared with daidzin
Experimental: The kinetic data were analyzed by standard graphical methods.

ALDH-I [5] = biological target: T1, ALDH-I; experiment: Reversibility of ALDH-I inhibition (preincubation, then dilution); assay type: biochemical; design: A liver sample (50 g wet weight) with the usual Caucasian ALDH phenotype (both ALDH-I and ALDH-II present); from tissue; host or cells: human liver (autopsy), purified by CM-52, AMP-agarose and DEAE HPLC
ALDH-II [6] = biological target: T2, ALDH-II; experiment: Inhibition kinetics of ALDH-II, initial velocity method, formaldehyde as substrate
Experimental: (§7) The inhibition kinetics were studied by the initial velocity method (Dixon and Webb, 1979, Enzymes, 3rd ed., Longman, Great Britain). […] The initial reaction rates were measured in a pH 9.5 assay medium 0.1 11 in glycine-NaOH, 0. […] The enzyme reaction rates were followed by monitoring the production of NADH at 340 nm (ε-6.22 mM^-1 cm^-1) with a Varian Cary 219 spectrophotometer thermostated at 25° C. The kinetic data were analyzed by standard graphical methods.

[7] = substrate: C=O; experiment: purified protein, by the assay type; details: pH 9.5; 25.0 °C
Experimental: as §7

[8] = 5 μM acetaldehyde, 1 mM NAD+, pH 9.5, 25° C., read-out: IC50, ALDH-I
[9] = 200 μM acetaldehyde, 1 mM NAD+, pH 9.5, 25° C., read-out: IC50, ALDH-II

Molecule: CN1CC(=O)NC1=O [1-methylhydantoin]
ALDH inhibition (ALDH-I or ALDH-II): not inhibitory

Molecule: c1ccc(-c2ccc3ccccc3n2)cc1 [2-phenylquinoline]
ALDH inhibition (ALDH-I or ALDH-II): did not inhibit

Molecule: CC(=O)Oc1ccc2c(=O)c(Cc3ccccc3)c(C)oc2c1OC(C)=O [3-Benzyl-7,8-diacetoxy-2-methylchromone]
IC50 (ALDH-I [1]; [8]): 10000 nM
IC50 (ALDH-II [2]; [9]): 3000 nM

IC50 (ALDH-I [1]; [8]): 10000 nM
IC50 (ALDH-II [2]; [9]): 2000 nM
Molecule: O=c1c(-c2ccccc2)c(-c2ccccc2)oc2cc(O)ccc12 [3-Phenyl-7-hydroxyflavone]

IC50 (ALDH-I [1]; [8]): 5000 nM
IC50 (ALDH-II [2]; [9]): 1500 nM
Molecule: CC(C)c1ccc(-c2coc3ccccc3c2=O)cc1 [4'-Isopropylisoflavone]

IC50 (ALDH-I [1]; [8]): 1000 nM
IC50 (ALDH-II [2]; [9]): 1000 nM
Molecule: CC1=C(c2ccccc2)C(=O)OC2CC(Cl)CCC12 (stereo not shown) [7-Chloro-4A,5,6,7,8,8A-hexahydro-4-methyl-3-phenylcoumarin]

IC50 (ALDH-II [2]; [9]): 300 nM
Molecule: O=c1cc(-c2ccccc2)c2ccc(O)cc2o1 [7-Hydroxy-4-phenylcoumarin]

IC50 (ALDH-II [2]; [9]): 500 nM
Molecule: Cc1ccc2c(c1)OC(=O)CC2c1ccccc1 (stereo not shown) [7-Methyl-4-phenyl-3,4-dihydrocoumarin]

IC50 (ALDH-I [1]; [8]): 5000 nM
IC50 (ALDH-II [2]; [9]): 5000 nM
Molecule: COc1ccc(-c2cc(=O)c3c(O)cc(O)cc3o2)cc1 [Acacetin]

Ki (ALDH-II [3]): 185 nM
solubility (physchem): 9 mM (≈ 3950 µg/mL)
Molecule: O=C(O)CCCCCCCCCCOc1ccc2c(=O)c(-c3ccc(O)cc3)coc2c1 [Daidzein 7-(ω-carboxydecyl) ether, daidzein 7-(ω-carboxydecyl)ether]

Ki (ALDH-II [3]): 450 nM
solubility (physchem): 26 mM (≈ 9580 µg/mL)
Molecule: O=C(O)CCCCCOc1ccc2c(=O)c(-c3ccc(O)cc3)coc2c1 [Daidzein 7-(ω-carboxypentyl) ether, daidzein 7-(ω-carboxypentyl) ether]
suppression of alcohol intake, hamster C14 (golden hamsters; trained hamster C14): 56%
suppression of alcohol intake, hamster D6 (golden hamsters; trained hamster D6): 72%

IC50 (ALDH-I [1]; [8]): 10000 nM
IC50 (ALDH-II [2]; [9]): 5000 nM
Molecule: O=c1cc(-c2ccccc2)oc2ccccc12 [Flavone]

Molecule: O=c1c(-c2ccc(O)cc2)coc2cc(O[C@@H]3O[C@H](CO)[C@@H](O)[C@H](O)[C@H]3O)cc(O)c12 [Genistin]
IC50 (ALDH-I [1]; [8]): 2000 nM
Ki (ALDH-I [4]): 360 nM
selectivity of ALDH inhibition (ALDH-I [4]): selectively inhibited ALDH-I
potency as ALDH-I inhibitor, fold less than that of daidzin (ALDH-I [4]): approximately 10 fold
relative potency as ALDH-I inhibitor, in words (ALDH-I [4]): nearly an order of magnitude less potent as an inhibitor than daidzin
reversibility of ALDH-I inhibition (ALDH-I [5]): reversible selective inhibitor of ALDH-I
IC50 (ALDH-II [2]): > 20000 nM
Ki (ALDH-II [6]): > 20000 nM

IC50 (ALDH-II [2]; [9]): 20000 nM
Molecule: COc1ccc(-c2coc3cc(O[C@@H]4O[C@H](CO)[C@@H](O)[C@H](O)[C@H]4O)ccc3c2=O)cc1 [Ononin]

Molecule: COc1cc(O)c2c(=O)c(-c3ccc(O)cc3)coc2c1 [Prunetin]
IC50 (ALDH-I [1]): 1000 nM
Ki (ALDH-I [4]): 300 nM
selectivity of ALDH inhibition (ALDH-I [4]): selectively inhibited ALDH-I
potency as ALDH-I inhibitor, fold less than that of daidzin (ALDH-I [4]): approximately 10 fold
relative potency as ALDH-I inhibitor, in words (ALDH-I [4]): nearly an order of magnitude less potent as an inhibitor than daidzin
IC50 (ALDH-II [2]): 12000 nM
Ki (ALDH-II [6]): 12000 nM

Molecule: NC(=O)NC1NC(=O)NC1=O (stereo not shown) [allantoin]
ALDH inhibition (ALDH-I or ALDH-II): not inhibitory

B1: human ALDH-I (Homo sapiens) (protein)
chain: SAAATQAVPAPNQQPEVFCNQIFINNEWHDAVSRKTFPTVNPSTGEVICQVAEGDKEDVDKAVKAARAAFQLGSPWRRMDASHRGRLLNRLADLIERDRTYLAALETLDNGKPYVISYLVDLDMVLKCLRYYAGWADKYHGKTIPIDGDFFSYTRHEPVGVCGQIIPWNFPLLMQAWKLGPALATGNVVVMKVAEQTPLTALYVANLIKEAGFPPGVVNIVPGFGPTAGAAIASHEDVDKVAFTGSTEIGRVIQVAAGSSNLKRVTLELGGKSPNIIMSDADMDWAVEQAHFALFFNQGQCCCAGSRTFVQEDIYDEFVERSVARAKSRVVGNPFDSKTEQGPQVDETQFKKILGYINTGKQEGAKLLCGGGIAADRGYFIQPTVFGDVQDGMTIAKEEIFGPVMQILKFKTIEEVVGRANNSTYGLAAAVFTKDLDKANYLSQALQAGTVWVNCYDVFGAQSPFGGYKMSGSGRELGEYGLQAYTEVKTVTVKVPQKNS
Km [7]: 0.8 mM
